Assay in all cases: biochemical
What all share (parameters): DiscoverX kinase panel, active-site competition binding (KINOMEscan type), percent of control at one concentration
Holding throughout (settings): competition binding, percent of control

Assay [1] deals with MST1R (Homo sapiens, UniProt Q04912).
Assay [2] deals with T1, ABL1(Q252H)-phosphorylated (Homo sapiens, UniProt P00519, Q252H).
T1 construct: phosphorylated

The target in assay [3] is FLT3(ITD,F691L) (Homo sapiens, UniProt P36888, F691L/ITD).
The target of assay [4] is T2, OSR1 (Homo sapiens, UniProt O95747).
T2 construct: gene OXSR1

Assay [5] deals with T3, ABL1(T315I)-phosphorylated (Homo sapiens, UniProt P00519, T315I).
T3 construct: phosphorylated

Assay [6] concerns the target MKNK2 (Homo sapiens, UniProt Q9HBH9).
Assay [7] has as its target SRC (Homo sapiens, UniProt P12931).
Assay [8] deals with T4, RSK2(Kin.Dom.1-N-terminal) (Homo sapiens, UniProt P51812).
T4 construct: gene RPS6KA3; Kin.Dom.1-N-terminal

Assay [9] concerns the target T5, MEK4 (Homo sapiens, UniProt P45985).
T5 construct: gene MAP2K4

Assay [10] concerns the target T6, MST3 (Homo sapiens, UniProt Q9Y6E0).
T6 construct: gene STK24

In assay [11] the target is ACVR2B (Homo sapiens, UniProt Q13705).
Assay [12] concerns the target MAST1 (Homo sapiens, UniProt Q9Y2H9).
The target of assay [13] is STK36 (Homo sapiens, UniProt Q9NRP7).
Assay [14] addresses PKNB(M.tuberculosis) (Mycobacterium tuberculosis, UniProt P9WI81).
Assay [15] deals with RET(M918T) (Homo sapiens, UniProt P07949, M918T).
The target of assay [16] is T7, MLK2 (Homo sapiens, UniProt Q02779).
T7 construct: gene MAP3K10

In assay [17] the target is FLT3(K663Q) (Homo sapiens, UniProt P36888, K663Q).
For assay [18], the target named is T8, DRAK2 (Homo sapiens, UniProt O94768).
T8 construct: gene STK17B

In assay [19] the target is T9, DCAMKL3 (Homo sapiens, UniProt Q9C098).
T9 construct: gene DCLK3

Assay [20] has as its target PIK3CA(C420R) (Homo sapiens, UniProt P42336, C420R).

The values below come from publication PMC7206119, “RIP1 inhibition blocks inflammatory diseases but not tumor growth or metastases” (Cell Death and Differentiation, 2019).

SMILES strings stand for the structures.

T7 sequence (Q02779 whole entry): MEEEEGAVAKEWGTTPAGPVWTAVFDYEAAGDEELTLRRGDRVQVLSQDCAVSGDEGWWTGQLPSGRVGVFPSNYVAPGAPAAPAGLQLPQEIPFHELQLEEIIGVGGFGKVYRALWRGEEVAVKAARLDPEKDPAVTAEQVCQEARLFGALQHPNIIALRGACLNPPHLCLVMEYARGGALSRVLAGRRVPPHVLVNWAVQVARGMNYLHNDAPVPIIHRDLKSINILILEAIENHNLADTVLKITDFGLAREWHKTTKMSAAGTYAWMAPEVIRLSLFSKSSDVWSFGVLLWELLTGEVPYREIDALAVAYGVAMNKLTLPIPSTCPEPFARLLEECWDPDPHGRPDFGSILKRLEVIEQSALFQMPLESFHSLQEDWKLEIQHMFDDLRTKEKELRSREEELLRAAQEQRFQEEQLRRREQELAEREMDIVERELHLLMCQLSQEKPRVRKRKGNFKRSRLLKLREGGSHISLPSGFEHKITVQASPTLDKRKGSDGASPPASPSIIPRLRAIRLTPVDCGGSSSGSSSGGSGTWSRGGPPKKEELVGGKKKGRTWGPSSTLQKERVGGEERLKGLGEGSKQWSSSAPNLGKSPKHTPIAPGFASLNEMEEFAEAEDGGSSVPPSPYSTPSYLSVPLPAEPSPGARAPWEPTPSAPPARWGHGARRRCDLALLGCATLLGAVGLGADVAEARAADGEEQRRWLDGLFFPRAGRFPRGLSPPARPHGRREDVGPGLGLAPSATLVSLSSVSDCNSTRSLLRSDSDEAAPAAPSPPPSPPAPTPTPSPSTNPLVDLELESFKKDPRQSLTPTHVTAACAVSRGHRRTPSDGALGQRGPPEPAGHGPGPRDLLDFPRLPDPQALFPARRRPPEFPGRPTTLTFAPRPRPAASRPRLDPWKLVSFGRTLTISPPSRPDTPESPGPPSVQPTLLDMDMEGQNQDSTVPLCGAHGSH
SRC, sequence (P12931 whole entry): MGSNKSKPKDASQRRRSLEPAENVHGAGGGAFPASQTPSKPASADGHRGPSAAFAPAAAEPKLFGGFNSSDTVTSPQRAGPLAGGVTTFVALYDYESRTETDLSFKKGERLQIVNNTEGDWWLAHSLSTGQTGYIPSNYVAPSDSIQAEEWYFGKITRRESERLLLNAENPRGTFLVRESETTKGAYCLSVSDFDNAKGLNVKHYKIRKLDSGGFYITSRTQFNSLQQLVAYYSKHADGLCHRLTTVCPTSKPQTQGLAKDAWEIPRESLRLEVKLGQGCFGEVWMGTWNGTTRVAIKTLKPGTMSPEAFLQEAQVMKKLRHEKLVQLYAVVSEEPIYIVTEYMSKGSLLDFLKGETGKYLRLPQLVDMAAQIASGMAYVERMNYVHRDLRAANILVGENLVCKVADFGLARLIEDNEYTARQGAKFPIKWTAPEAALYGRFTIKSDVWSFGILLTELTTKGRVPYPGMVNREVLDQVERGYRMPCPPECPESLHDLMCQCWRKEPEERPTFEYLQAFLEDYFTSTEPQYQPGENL
PIK3CA(C420R), sequence (P42336 whole entry C420R): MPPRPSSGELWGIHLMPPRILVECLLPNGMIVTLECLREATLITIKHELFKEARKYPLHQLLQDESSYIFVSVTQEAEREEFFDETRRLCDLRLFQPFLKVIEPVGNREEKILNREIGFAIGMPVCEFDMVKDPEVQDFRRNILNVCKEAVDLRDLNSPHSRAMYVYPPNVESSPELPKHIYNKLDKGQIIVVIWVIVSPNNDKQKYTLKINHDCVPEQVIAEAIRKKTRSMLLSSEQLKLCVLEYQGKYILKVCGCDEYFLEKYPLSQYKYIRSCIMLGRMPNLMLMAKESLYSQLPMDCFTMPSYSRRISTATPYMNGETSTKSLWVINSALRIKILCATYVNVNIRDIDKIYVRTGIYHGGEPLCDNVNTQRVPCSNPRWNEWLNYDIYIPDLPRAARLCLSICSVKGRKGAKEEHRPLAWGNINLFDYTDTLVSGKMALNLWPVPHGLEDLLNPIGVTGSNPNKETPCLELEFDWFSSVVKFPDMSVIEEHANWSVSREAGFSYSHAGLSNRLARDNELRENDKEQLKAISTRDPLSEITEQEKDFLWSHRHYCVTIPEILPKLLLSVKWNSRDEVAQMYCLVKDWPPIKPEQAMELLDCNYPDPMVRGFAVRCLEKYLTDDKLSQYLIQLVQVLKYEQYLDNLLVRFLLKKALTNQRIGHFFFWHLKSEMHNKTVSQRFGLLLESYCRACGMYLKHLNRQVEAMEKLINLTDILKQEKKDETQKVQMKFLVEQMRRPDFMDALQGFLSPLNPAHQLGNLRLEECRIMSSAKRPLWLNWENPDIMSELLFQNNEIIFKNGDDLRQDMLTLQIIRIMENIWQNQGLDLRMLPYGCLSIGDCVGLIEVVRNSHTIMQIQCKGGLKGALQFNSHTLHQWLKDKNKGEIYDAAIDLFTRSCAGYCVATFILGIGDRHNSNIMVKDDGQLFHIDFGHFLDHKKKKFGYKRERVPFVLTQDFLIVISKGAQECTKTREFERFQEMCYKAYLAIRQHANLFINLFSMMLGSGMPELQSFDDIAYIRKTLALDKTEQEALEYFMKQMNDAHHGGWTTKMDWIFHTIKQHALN
MAST1, sequence (Q9Y2H9 whole entry): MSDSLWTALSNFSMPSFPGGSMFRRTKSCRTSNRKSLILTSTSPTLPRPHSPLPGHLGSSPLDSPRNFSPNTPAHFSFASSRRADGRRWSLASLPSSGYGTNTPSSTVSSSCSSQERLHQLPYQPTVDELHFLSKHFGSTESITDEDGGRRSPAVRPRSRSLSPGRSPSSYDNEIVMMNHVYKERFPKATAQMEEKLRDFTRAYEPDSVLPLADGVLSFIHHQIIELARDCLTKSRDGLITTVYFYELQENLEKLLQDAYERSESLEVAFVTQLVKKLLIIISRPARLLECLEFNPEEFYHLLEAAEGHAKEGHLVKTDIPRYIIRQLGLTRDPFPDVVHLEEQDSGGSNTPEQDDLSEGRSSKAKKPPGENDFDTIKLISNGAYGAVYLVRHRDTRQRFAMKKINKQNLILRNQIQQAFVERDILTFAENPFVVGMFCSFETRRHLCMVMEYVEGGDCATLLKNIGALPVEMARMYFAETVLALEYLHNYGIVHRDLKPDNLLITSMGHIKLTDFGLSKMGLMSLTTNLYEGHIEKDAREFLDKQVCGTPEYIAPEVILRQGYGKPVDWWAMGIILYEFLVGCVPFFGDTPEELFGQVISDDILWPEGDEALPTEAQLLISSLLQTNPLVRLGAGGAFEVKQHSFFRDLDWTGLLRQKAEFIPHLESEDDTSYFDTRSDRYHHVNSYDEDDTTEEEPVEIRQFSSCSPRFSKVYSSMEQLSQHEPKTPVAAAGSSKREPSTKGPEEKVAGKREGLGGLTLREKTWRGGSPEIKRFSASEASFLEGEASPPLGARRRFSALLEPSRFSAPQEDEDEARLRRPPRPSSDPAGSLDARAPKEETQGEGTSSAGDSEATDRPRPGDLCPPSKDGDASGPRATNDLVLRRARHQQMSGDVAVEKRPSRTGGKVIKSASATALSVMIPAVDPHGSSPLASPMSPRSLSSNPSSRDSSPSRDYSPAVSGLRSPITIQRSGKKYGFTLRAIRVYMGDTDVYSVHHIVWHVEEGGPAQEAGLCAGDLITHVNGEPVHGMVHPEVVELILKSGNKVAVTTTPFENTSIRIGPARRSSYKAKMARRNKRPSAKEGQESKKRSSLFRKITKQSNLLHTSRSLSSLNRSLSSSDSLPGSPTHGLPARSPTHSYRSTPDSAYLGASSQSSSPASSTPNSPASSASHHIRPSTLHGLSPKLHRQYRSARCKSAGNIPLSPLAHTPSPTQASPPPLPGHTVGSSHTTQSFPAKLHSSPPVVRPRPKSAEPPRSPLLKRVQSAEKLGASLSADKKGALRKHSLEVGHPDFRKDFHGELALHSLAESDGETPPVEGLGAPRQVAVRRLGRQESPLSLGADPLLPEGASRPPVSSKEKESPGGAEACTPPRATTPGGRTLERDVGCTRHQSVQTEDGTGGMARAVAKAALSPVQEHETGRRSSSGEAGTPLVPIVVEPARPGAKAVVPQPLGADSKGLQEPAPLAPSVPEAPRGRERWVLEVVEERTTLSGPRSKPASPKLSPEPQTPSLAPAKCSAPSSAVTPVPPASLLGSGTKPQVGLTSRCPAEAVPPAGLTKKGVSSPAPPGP
ACVR2B, sequence (Q13705 whole entry): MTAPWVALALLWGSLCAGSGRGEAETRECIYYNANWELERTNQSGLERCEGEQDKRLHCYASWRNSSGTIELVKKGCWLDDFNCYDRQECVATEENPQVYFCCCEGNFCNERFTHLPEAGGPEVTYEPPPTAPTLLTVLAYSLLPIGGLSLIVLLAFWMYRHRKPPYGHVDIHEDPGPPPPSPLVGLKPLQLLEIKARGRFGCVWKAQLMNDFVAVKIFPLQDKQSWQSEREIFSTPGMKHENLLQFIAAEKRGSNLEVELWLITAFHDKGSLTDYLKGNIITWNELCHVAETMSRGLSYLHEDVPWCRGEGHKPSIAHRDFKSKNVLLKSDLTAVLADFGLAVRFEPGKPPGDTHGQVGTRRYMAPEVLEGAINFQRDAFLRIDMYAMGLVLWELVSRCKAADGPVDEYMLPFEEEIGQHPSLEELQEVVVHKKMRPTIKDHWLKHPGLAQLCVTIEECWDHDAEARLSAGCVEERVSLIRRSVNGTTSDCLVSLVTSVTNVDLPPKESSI
T6 sequence (Q9Y6E0 whole entry): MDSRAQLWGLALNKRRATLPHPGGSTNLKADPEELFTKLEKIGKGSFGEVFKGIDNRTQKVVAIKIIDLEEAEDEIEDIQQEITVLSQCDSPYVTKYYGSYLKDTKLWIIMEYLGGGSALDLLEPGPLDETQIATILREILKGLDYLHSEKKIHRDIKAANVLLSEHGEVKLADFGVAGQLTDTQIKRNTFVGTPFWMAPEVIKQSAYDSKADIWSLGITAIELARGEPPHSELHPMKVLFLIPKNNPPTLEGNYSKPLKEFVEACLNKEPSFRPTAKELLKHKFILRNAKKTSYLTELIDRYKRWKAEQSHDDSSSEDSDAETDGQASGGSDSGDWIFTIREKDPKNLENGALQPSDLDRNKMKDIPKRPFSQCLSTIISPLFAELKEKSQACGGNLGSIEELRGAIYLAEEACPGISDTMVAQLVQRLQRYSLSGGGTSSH

As for `COc1cc2c(cn1)N(C)C(=O)[C@@H](NC(=O)c1nc3n(n1)[C@H](c1ccccc1)CC3)CC2` [GNE684, (S)-N-((S)-7-methoxy-1-methyl-2-oxo-2,3,4,5-tetrahydro-1H-pyrido[3,4-b]azepin-3-yl)-5-phenyl-6,7-dihydro-5H-pyrrolo[1,2-b][1,2,4]triazole-2-carboxamide], the remaining binding at 10 µM in assay [1] was found to be 94%; in assay [2], 96%; in [3] it was 98%; in [4], 93%; in [5] it was 81%; in [6], 96%. The remaining binding at 10 µM in [7] amounted to 72%; in assay [8], 65%; in assay [9] it was 88%; in assay [10] it was 99%; in assay [11] it was 94%; in [12], 94%. For the same compound, the remaining binding at 10 µM in [13] came to 85%; in assay [14] it was 96%; in assay [15] it was 89%; in assay [16] it was 72%; in assay [17], 100%; in [18] it was 100%. For the same compound, the results for the remaining binding at 10 µM in assay [19] and in assay [20] were 92% and 100%, respectively.
